Assay results taken from the NIST ThermoML archive (doi:10.1016/j.jct.2007.03.012).

Assay: xn = mol fraction of the nth substance listed
Settings: Liquid, Bellows volumetry

CC(C)C [2-methylpropane] + CCC
mass density [kg/m3]
Settings | 280 K | 300 K | 320 K | 340 K | 360 K
1000 kPa, x2 = 0.2765 | 562.64 | – | 508.11 | – | –
1000 kPa, x2 = 0.5052 | 551.34 | 524.22 | – | – | –
1000 kPa, x2 = 0.7468 | 537.6 | – | – | – | –
2000 kPa, x2 = 0.2765 | 564.6 | – | 511.38 | – | –
2000 kPa, x2 = 0.5052 | 553.2 | 526.6 | 497.06 | 461.7 | –
2000 kPa, x2 = 0.7468 | 539.46 | – | 479.56 | – | –
3000 kPa, x2 = 0.2765 | 566.3 | – | 514.42 | – | 445.63
3000 kPa, x2 = 0.5052 | 555.01 | 529.08 | 500.46 | 467.03 | 423.27
3000 kPa, x2 = 0.7468 | 541.38 | – | 483.56 | – | –
5000 kPa, x2 = 0.2765 | 569.29 | – | 520.11 | – | 458.57
5000 kPa, x2 = 0.5052 | 558.39 | 533.59 | 506.63 | 476.37 | 439.84
5000 kPa, x2 = 0.7468 | 545.05 | – | 490.55 | – | 415.25
10000 kPa, x2 = 0.2765 | 576.64 | – | 531.88 | – | 480.82
10000 kPa, x2 = 0.5052 | 565.97 | 543.3 | 519.45 | 493.82 | 465.78
10000 kPa, x2 = 0.7468 | 553.18 | – | 504.71 | – | 447.04
20000 kPa, x2 = 0.2765 | 589.39 | – | 550.35 | – | 509.06
20000 kPa, x2 = 0.5052 | 579.24 | 559.15 | 538.88 | 518.13 | 496.7
20000 kPa, x2 = 0.7468 | 566.92 | – | 525.65 | – | –
30000 kPa, x2 = 0.2765 | 600.09 | – | 564.57 | – | –
30000 kPa, x2 = 0.5052 | 590.28 | 572.02 | 553.95 | 535.68 | –
30000 kPa, x2 = 0.7468 | 578.25 | – | 541.33 | – | –
40000 kPa, x2 = 0.2765 | 609.41 | – | 576.53 | – | –
40000 kPa, x2 = 0.5052 | 599.56 | 582.88 | 566.43 | 549.83 | –
40000 kPa, x2 = 0.7468 | 588.02 | – | 553.96 | – | –
50000 kPa, x2 = 0.2765 | 617.7 | – | 586.9 | – | –
50000 kPa, x2 = 0.5052 | 608.07 | 592.36 | 576.96 | 561.5 | –
50000 kPa, x2 = 0.7468 | 596.76 | – | 564.8 | – | –
60000 kPa, x2 = 0.2765 | 625.03 | – | 595.84 | – | –
60000 kPa, x2 = 0.5052 | 615.65 | 600.74 | 586.25 | 571.92 | –
60000 kPa, x2 = 0.7468 | 604.59 | – | 574.56 | – | –
70000 kPa, x2 = 0.2765 | 632.03 | – | 604.2 | – | –
70000 kPa, x2 = 0.5052 | 622.58 | 608.66 | 594.64 | 581.17 | –
70000 kPa, x2 = 0.7468 | 611.65 | – | 583.04 | – | –
80000 kPa, x2 = 0.2765 | 638.32 | – | 611.65 | – | –
80000 kPa, x2 = 0.5052 | 629.12 | 615.58 | 602.37 | 589.45 | –
80000 kPa, x2 = 0.7468 | 618.29 | – | 590.88 | – | –
90000 kPa, x2 = 0.2765 | 644.2 | – | 618.46 | – | –
90000 kPa, x2 = 0.5052 | 635.05 | 622.2 | 609.27 | 597.11 | –
90000 kPa, x2 = 0.7468 | 624.34 | – | 598.03 | – | –
100000 kPa, x2 = 0.2765 | 649.78 | – | 625.01 | – | –
100000 kPa, x2 = 0.5052 | 640.63 | 628.29 | 615.79 | 603.84 | –
100000 kPa, x2 = 0.7468 | 629.98 | – | 604.67 | – | –
120000 kPa, x2 = 0.2765 | 659.95 | – | 636.48 | – | –
120000 kPa, x2 = 0.5052 | 650.88 | 639.23 | 627.71 | 616.54 | –
120000 kPa, x2 = 0.7468 | 640.58 | – | 616.69 | – | –
140000 kPa, x2 = 0.2765 | 669.13 | – | 647 | – | –
140000 kPa, x2 = 0.5052 | 660.2 | 649.29 | 638.12 | 627.45 | –
140000 kPa, x2 = 0.7468 | 649.88 | – | 627.42 | – | –
160000 kPa, x2 = 0.2765 | 677.73 | – | 656.27 | – | –
160000 kPa, x2 = 0.5052 | 668.68 | 658.13 | 647.73 | 637.64 | –
160000 kPa, x2 = 0.7468 | 658.46 | – | 636.99 | – | –
180000 kPa, x2 = 0.2765 | 685.38 | – | 665.05 | – | –
180000 kPa, x2 = 0.5052 | 676.44 | 666.5 | 656.41 | 646.63 | –
180000 kPa, x2 = 0.7468 | 666.22 | – | 645.7 | – | –
200000 kPa, x2 = 0.2765 | 692.5 | – | 673 | – | –
200000 kPa, x2 = 0.5052 | 683.68 | 674.16 | 664.56 | 655.11 | –
200000 kPa, x2 = 0.7468 | 673.88 | – | 653.87 | – | –
